Measured values published in article PMC12163822, “Synthesis and Pharmacological Characterization of a Novel Cannabinoid Receptor 1 Antagonist” (ACS Omega, 2025).

The molecules below were run against cannabinoid receptors (assay: [3H]CP55,940 competition binding in rat brain cortex membrane homogenates). Settings: competition vs 0.5 nM [3H]CP55,940, rat brain cortex membranes, one-site fit; read-out: IC50.
Set-up: species or system Sprague-Dawley rat
Method: Sprague–Dawley rats (n = 5) were anesthetized and sacrificed by decapitation. Spleens and brains were then quickly removed by dissection at 4 °C, and in the case of the brain tissue, the cortex was dissected for the preparation of the membrane homogenates. For this procedure, spleen and cortex samples were homogenized using a Teflon-glass grinder (15 up-and-down strokes at 800 rpm) in 30 volumes of homogenization buffer (1 mM EGTA, 3 mM MgCl2, 50 mM Tris–HCl; pH 7.4) supplemented with […], at 4 °C. The obtained homogenates were centrifuged for 5 min at 1500 rpm. Pellets were removed, and supernatants were centrifuged again for 15 min at 14,000 rpm. For washing, the obtained pellets were resuspended in a buffer and centrifuged again, and the supernatant was removed. The resulting aliquots were stored at −80 °C until use.
To stop the reaction, an ice-cold wash buffer (50 mM Tris–HCl and 0.5% BSA, pH 7.4) was added. Then, the membranes were retained by vacuum filtration to a Whatman GF/C glass microfiber filter (Sigma-Aldrich, St. Louis, MO, USA) and the free radioligand was discarded. Filters with the bound radioligand were transferred to vials containing 5 mL of Ultima Gold cocktail (Revvity, Boston, MA, USA) and measured with a Packard Tri-Carb 2200CA liquid scintillation counter (Revvity, Boston, MA, USA).
Data from radioligand affinity assays were analyzed by using nonlinear regression. A comparison of fits was performed for every curve and the preferred model (one site vs two sites) was chosen in each case. Curves were fitted to the pooled data from multiple experiments. For the evaluation of data from autoradiographic assays, the Kruskal–Wallis test followed by Dunn’s post hoc tests for multiple comparisons was performed. For statistical significance, the threshold was set at p = 0.05. The number of replicates or animal sample number used in each case is stated in the figure legends. GraphPad Prism 9 (GraphPad Software) was employed for data analysis and presentation.

IC50 [µM] | Structure (SMILES)
> 10 | CCOC(=O)/C=C1\C(=O)Nc2ccc(F)cc2-c2c1c1cc(C)ccc1n2C(=O)OCC [UVI3503]
5.908 ± 0.00718 | O=C(O)CC1C(=O)Nc2ccccc2-c2[nH]c3ccccc3c21 (stereo not shown) [UVI3504]
0.00885 ± 0.0146 | CCOC(=O)CC1C(=O)Nc2ccccc2-c2[nH]c3ccccc3c21 (stereo not shown) [UVI3505]
7.041 ± 0.018 | O=C(O)/C=C1\C(=O)Nc2ccccc2-c2[nH]c3ccccc3c21 [UVI3506]
310 | CCOC(=O)/C=C1\C(=O)Nc2ccccc2-c2c1c1ccccc1n2C(=O)OCC [UVI3508]
> 10 | COc1ccc2[nH]c3c(c2c1)/C(=C/C(=O)O)C(=O)Nc1ccc(C)cc1-3 [UVI3509]
0.0106 | CCOC(=O)CC1c2c([nH]c3ccccc23)-c2ccccc2-n2c(C)nnc21 (stereo not shown) [UVI8113]
